{"source": "patent US20080009418A1", "about": "“Selective Inhibitors” (Alchemia LTD., priority 2004, published 2008)", "details_in_all_cases": "compound at 10 μM", "key": {"Human κ-Opioid (KOP)": {"biological_target": "T1, Human κ-Opioid (KOP) (Homo sapiens, UniProt P41145)", "T1 construct": "purchased Perkin Elmer Biosignal", "T1 sequence (P41145 whole entry)": "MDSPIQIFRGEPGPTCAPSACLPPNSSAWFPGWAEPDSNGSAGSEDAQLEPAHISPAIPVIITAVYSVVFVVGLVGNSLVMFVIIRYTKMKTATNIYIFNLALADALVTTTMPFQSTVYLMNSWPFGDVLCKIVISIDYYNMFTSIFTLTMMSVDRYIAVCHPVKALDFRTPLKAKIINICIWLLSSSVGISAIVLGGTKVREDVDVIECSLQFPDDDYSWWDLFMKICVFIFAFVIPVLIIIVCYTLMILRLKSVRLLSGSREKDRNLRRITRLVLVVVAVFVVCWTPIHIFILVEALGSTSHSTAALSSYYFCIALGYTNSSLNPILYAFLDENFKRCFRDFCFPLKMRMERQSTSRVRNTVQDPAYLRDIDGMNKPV", "assay": "Radioligand binding, human κ-opioid (KOP) membranes, filtration, [3H]-Diprenorphine", "how_it_was_run": "(§1)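 Membranes from cloned human receptors were incubated with compound and radioligand for 1 hour at room temperature. Bound ligand was collected on 0.3% PEI-soaked filters, washed with cold 50 mM Tris-HCl pH 7.4, and counted by scintillation. Percent inhibition was computed against DMSO totals and reference-ligand nonspecific wells.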"}, "[1]": {"biological_target": "T2, Human neuropeptide Y (NPY-Y1) (Homo sapiens, UniProt P25929)", "T2 construct": "purchased Perkin Elmer Biosignal", "T2 sequence (P25929 1-384)": "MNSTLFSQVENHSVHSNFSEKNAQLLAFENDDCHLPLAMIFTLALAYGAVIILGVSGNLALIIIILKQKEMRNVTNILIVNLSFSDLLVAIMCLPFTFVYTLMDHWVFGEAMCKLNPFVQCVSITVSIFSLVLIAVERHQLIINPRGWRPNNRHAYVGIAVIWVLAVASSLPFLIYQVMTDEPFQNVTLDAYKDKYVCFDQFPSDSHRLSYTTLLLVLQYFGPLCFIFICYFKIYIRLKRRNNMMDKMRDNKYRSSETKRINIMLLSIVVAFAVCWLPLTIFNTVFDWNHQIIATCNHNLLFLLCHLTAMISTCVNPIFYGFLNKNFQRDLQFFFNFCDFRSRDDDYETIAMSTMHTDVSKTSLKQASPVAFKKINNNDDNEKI", "assay": "Radioligand binding, human neuropeptide Y NPY-Y1 membranes, FlashPlate, [125I]-PYY", "how_it_was_run": "(§2)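 Cloned human receptor membranes were coated onto FlashPlate wells and incubated with radioligand and compound (added from a 0.5 mM DMSO daughter plate) for 1 hour at room temperature in the dark. Scintillation counting gave percent inhibition, with DMSO defining total and reference ligand defining non-specific binding.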"}, "Human δ-opioid (DOP)": {"biological_target": "T3, Human δ-opioid (DOP) (Homo sapiens, UniProt P41143)", "T3 construct": "purchased Perkin Elmer Biosignal", "T3 sequence (P41143 whole entry)": "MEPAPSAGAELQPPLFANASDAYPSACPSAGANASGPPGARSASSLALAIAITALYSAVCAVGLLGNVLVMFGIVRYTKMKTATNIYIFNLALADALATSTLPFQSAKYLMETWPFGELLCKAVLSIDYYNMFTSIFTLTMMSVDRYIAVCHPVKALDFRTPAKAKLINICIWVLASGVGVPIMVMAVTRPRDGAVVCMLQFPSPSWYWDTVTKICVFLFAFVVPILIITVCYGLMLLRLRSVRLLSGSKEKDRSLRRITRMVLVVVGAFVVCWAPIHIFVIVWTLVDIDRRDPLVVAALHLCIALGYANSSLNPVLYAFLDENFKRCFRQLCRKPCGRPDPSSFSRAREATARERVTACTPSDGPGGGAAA", "assay": "Radioligand binding, human δ-opioid (DOP) membranes, FlashPlate, [3H]-Bremazocine", "how_it_was_run": "as §2"}, "Human μ-opioid (MOP)": {"biological_target": "T4, Human μ-opioid (MOP) (Homo sapiens, UniProt P35372)", "T4 construct": "purchased Perkin Elmer Biosignal", "T4 sequence (P35372 whole entry)": "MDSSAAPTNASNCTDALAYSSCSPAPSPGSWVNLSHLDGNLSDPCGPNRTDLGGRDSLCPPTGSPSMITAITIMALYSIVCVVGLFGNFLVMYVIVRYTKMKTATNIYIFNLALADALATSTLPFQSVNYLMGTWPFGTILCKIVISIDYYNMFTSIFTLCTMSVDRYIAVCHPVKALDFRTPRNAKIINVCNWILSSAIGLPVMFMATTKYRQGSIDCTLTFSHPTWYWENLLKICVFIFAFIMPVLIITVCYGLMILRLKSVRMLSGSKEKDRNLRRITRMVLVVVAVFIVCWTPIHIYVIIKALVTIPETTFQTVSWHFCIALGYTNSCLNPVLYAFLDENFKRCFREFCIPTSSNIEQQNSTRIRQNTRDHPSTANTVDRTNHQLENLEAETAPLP", "assay": "Radioligand binding, human μ-opioid (MOP) membranes, FlashPlate, [3H]-Naloxone", "how_it_was_run": "as §2"}, "Mouse urotensin (mUR2)": {"biological_target": "T5, Mouse urotensin (mUR2) (Mus musculus, UniProt Q8VIH9)", "T5 construct": "purchased Perkin Elmer Biosignal", "T5 sequence (Q8VIH9 1-385)": "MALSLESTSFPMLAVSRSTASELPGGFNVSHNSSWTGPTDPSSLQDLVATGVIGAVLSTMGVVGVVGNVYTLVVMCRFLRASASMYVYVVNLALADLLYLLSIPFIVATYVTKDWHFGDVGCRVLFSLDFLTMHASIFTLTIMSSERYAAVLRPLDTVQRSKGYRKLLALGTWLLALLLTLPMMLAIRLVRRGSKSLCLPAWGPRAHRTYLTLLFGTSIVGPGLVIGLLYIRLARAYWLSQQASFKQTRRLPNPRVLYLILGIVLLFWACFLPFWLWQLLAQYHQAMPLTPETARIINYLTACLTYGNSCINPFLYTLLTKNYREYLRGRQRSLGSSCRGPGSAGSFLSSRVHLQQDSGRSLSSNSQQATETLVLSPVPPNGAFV", "assay": "Radioligand binding, mouse urotensin mUR2 membranes, FlashPlate, [125I]-Urotensin II", "how_it_was_run": "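Cloned mouse urotensin (mUR2) receptor membranes from Perkin Elmer Biosignal were immobilized in FlashPlate microplates using a proprietary coating. Each well got 19.5 μl buffer, then 0.5 μl of DMSO, reference ligand, or compound. Adding 5 μl of [125I]-Urotensin II, diluted to 5× final concentration in binding buffer, started binding. Plates were sealed with TopSeal-A and incubated 1 hour at room temperature in the dark. Wells were counted for 30 seconds each on a TopCount after a 60-second delay, and percentage inhibition was calculated.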"}, "Human neurokinin (NK1)": {"biological_target": "T6, Human neurokinin (NK1) (Homo sapiens, UniProt P25103)", "T6 construct": "purchased Perkin Elmer Biosignal", "T6 sequence (P25103 whole entry)": "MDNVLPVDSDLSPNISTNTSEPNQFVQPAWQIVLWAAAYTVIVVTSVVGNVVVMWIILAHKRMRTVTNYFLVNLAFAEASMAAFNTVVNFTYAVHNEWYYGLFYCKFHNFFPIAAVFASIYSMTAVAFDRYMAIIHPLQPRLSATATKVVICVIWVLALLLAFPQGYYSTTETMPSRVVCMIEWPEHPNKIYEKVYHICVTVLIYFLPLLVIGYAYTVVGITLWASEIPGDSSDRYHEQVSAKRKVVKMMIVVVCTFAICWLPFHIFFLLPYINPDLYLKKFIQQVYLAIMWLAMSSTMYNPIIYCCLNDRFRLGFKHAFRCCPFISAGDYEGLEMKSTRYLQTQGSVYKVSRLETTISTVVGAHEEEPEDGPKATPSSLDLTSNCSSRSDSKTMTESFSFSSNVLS", "assay": "Radioligand binding, human neurokinin NK1 membranes, filtration, [125I]-Substance P", "how_it_was_run": "as §1"}, "Human Melanocortin (MC4)": {"biological_target": "T7, Human Melanocortin (MC4) (Homo sapiens, UniProt P32245)", "T7 construct": "purchased Perkin Elmer Biosignal", "T7 sequence (P32245 whole entry)": "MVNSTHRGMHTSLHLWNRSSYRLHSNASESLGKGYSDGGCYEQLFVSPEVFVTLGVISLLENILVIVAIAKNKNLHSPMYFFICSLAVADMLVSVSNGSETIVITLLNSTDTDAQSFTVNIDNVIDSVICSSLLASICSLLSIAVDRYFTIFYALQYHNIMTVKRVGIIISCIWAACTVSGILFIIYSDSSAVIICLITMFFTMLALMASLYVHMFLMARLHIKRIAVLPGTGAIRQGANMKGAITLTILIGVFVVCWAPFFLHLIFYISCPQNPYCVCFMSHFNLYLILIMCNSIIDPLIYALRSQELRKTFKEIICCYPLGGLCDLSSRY", "assay": "Radioligand binding, human melanocortin MC4 membranes, FlashPlate, [125I]-NDP-αMSH", "how_it_was_run": "as §2"}, "[2]": {"biological_target": "T8, Human melanin-concentrating hormone (MCH1) (Homo sapiens, UniProt Q99705)", "T8 construct": "purchased Perkin Elmer Biosignal", "T8 sequence (Q99705 whole entry)": "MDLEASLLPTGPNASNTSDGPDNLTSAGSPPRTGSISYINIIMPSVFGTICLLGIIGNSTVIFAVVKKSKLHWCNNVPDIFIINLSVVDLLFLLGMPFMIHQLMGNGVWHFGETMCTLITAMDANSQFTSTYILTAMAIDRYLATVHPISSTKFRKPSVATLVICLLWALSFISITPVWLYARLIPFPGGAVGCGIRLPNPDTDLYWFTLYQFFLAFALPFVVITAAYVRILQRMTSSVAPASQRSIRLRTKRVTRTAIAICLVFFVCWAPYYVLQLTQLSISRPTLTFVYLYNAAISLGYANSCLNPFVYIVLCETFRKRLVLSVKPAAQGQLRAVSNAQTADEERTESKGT", "assay": "Radioligand binding, human melanin-concentrating hormone MCH1 membranes, FlashPlate, [125I]-S36057", "how_it_was_run": "as §2"}, "Human Melanocortin (MC3)": {"biological_target": "T9, Human Melanocortin (MC3) (Homo sapiens, UniProt P41968)", "T9 construct": "purchased Perkin Elmer Biosignal", "T9 sequence (P41968 whole entry)": "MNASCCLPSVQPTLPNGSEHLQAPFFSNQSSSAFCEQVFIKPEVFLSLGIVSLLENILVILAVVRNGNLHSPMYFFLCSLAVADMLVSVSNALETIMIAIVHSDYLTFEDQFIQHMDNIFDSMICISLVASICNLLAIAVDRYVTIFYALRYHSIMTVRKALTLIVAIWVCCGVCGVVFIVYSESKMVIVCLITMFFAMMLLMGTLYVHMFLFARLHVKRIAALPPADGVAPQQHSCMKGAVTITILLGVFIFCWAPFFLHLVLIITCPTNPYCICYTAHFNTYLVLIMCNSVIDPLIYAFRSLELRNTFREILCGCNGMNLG", "assay": "Radioligand binding, human melanocortin MC3 membranes, FlashPlate, [125I]-NDP-αMSH", "how_it_was_run": "as §2"}, "Human melanocortin (MC5)": {"biological_target": "T10, Human melanocortin (MC5) (Homo sapiens, UniProt P33032)", "T10 construct": "purchased Perkin Elmer Biosignal", "T10 sequence (P33032 whole entry)": "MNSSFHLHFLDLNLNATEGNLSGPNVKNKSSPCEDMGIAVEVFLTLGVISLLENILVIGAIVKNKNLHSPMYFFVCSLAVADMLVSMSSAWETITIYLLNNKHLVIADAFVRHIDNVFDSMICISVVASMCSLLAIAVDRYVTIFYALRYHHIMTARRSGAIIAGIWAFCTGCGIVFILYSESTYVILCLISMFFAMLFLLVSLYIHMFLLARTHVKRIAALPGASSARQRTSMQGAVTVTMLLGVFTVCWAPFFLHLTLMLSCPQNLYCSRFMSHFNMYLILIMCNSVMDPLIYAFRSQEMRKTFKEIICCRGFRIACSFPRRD", "assay": "Radioligand binding, human melanocortin MC5 membranes, FlashPlate, [125I]-NDP-αMSH", "how_it_was_run": "as §2"}, "Human opioid (ORL1)": {"biological_target": "T11, Human opioid (ORL1) (Homo sapiens, UniProt P41146)", "T11 construct": "purchased Perkin Elmer Biosignal", "T11 sequence (P41146 whole entry)": "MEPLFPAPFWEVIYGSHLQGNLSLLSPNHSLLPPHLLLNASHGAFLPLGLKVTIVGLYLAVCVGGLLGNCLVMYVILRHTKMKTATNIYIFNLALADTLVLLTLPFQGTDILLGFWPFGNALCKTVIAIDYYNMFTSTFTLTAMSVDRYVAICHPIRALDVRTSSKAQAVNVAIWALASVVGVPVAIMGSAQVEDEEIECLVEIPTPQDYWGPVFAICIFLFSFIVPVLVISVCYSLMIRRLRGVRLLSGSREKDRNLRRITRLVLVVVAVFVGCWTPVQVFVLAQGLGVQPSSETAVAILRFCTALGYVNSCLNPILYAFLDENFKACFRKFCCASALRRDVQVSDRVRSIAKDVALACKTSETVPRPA", "assay": "Radioligand binding, human opioid ORL1 membranes, FlashPlate, [125I]-Nociceptin", "how_it_was_run": "as §2"}}}
{"smiles": "CO[C@H]1[C@H](O)[C@@H](COCc2ccc(-c3ccccc3)cc2)OC(OCc2ccccc2)[C@@H]1NC(=O)CCCN", "note": "(stereo partly drawn) [compound 84]", "values": [{"measurement": "A2 radioligand binding inhibition", "setting": "Human κ-Opioid (KOP); human κ-opioid (KOP) membranes", "result": "− (“−” indicates less than 50% inhibition at 10 μM)"}, {"measurement": "A9 radioligand binding inhibition", "setting": "[1]; human NPY-Y1 membranes", "result": "− (“−” indicates less than 50% inhibition at 10 μM)"}, {"measurement": "A1 radioligand binding inhibition", "setting": "Human δ-opioid (DOP); human δ-opioid (DOP) membranes", "result": "− (“−” indicates less than 50% inhibition at 10 μM)"}, {"measurement": "A7 radioligand binding inhibition", "setting": "Human μ-opioid (MOP); human μ-opioid (MOP) membranes", "result": "− (“−” indicates less than 50% inhibition at 10 μM)"}, {"measurement": "A11 radioligand binding inhibition", "setting": "Mouse urotensin (mUR2); mouse urotensin mUR2 membranes", "result": "− (“−” indicates less than 50% inhibition at 10 μM)"}, {"measurement": "A8 radioligand binding inhibition", "setting": "Human neurokinin (NK1); human neurokinin NK1 membranes", "result": "+ (“+” indicates greater than 50% inhibition at 10 μM)"}, {"measurement": "A4 radioligand binding inhibition", "setting": "Human Melanocortin (MC4); human melanocortin MC4 membranes", "result": "− (“−” indicates less than 50% inhibition at 10 μM)"}, {"measurement": "A6 radioligand binding inhibition", "setting": "[2]; human MCH1 membranes", "result": "− (“−” indicates less than 50% inhibition at 10 μM)"}, {"measurement": "A3 radioligand binding inhibition", "setting": "Human Melanocortin (MC3); human melanocortin MC3 membranes", "result": "− (“−” indicates less than 50% inhibition at 10 μM)"}, {"measurement": "A5 radioligand binding inhibition", "setting": "Human melanocortin (MC5); human melanocortin MC5 membranes", "result": "− (“−” indicates less than 50% inhibition at 10 μM)"}, {"measurement": "A10 radioligand binding inhibition", "setting": "Human opioid (ORL1); human ORL1 membranes", "result": "− (“−” indicates less than 50% inhibition at 10 μM)"}]}
{"smiles": "CSC1OC(COCc2ccc(Cl)cc2)C(O)C(OCc2ccc3ccccc3c2)C1NC(=O)CCCNC(=N)N", "note": "(stereo not drawn) [compound 311]", "values": [{"measurement": "A2: inhibition of radioligand binding, human κ-opioid (KOP)", "setting": "Human κ-Opioid (KOP); [3H]-Diprenorphine", "result": "− (“−” indicates less than 50% inhibition at 10 μM)"}, {"measurement": "A9: inhibition of radioligand binding, human neuropeptide Y (NPY-Y1)", "setting": "[1]; [125I]-PYY", "result": "− (“−” indicates less than 50% inhibition at 10 μM)"}, {"measurement": "A1: inhibition of radioligand binding, human δ-opioid (DOP)", "setting": "Human δ-opioid (DOP); [3H]-Bremazocine", "result": "− (“−” indicates less than 50% inhibition at 10 μM)"}, {"measurement": "A7: inhibition of radioligand binding, human μ-opioid (MOP)", "setting": "Human μ-opioid (MOP); [3H]-Naloxone", "result": "− (“−” indicates less than 50% inhibition at 10 μM)"}, {"measurement": "A11: inhibition of radioligand binding, mouse urotensin (mUR2)", "setting": "Mouse urotensin (mUR2); [125I]-Urotensin II", "result": "− (“−” indicates less than 50% inhibition at 10 μM)"}, {"measurement": "A8: inhibition of radioligand binding, human neurokinin (NK1)", "setting": "Human neurokinin (NK1); [125I]-Substance P", "result": "+ (“+” indicates greater than 50% inhibition at 10 μM)"}, {"measurement": "A4: inhibition of radioligand binding, human melanocortin (MC4)", "setting": "Human Melanocortin (MC4); [125I]-NDP-αMSH", "result": "+ (“+” indicates greater than 50% inhibition at 10 μM)"}, {"measurement": "A6: inhibition of radioligand binding, human melanin-concentrating hormone (MCH1)", "setting": "[2]; [125I]-S36057", "result": "− (“−” indicates less than 50% inhibition at 10 μM)"}, {"measurement": "A3: inhibition of radioligand binding, human melanocortin (MC3)", "setting": "Human Melanocortin (MC3); [125I]-NDP-αMSH", "result": "− (“−” indicates less than 50% inhibition at 10 μM)"}, {"measurement": "A5: inhibition of radioligand binding, human melanocortin (MC5)", "setting": "Human melanocortin (MC5); [125I]-NDP-αMSH", "result": "+ (“+” indicates greater than 50% inhibition at 10 μM)"}, {"measurement": "A10: inhibition of radioligand binding, human opioid (ORL1)", "setting": "Human opioid (ORL1); [125I]-Nociceptin", "result": "− (“−” indicates less than 50% inhibition at 10 μM)"}]}
{"smiles": "CSC1O[C@H](COCc2ccc(-c3ccccc3)cc2)[C@@H](O)[C@@H](OCc2ccc(Cl)cc2)[C@H]1NC(=O)CNC(=N)N", "note": "(stereo partly drawn) [compound 275]", "values": [{"measurement": "A2: inhibition of radioligand binding", "setting": "Human κ-Opioid (KOP); [3H]-Diprenorphine, filtration", "result": "− (“−” indicates less than 50% inhibition at 10 μM)"}, {"measurement": "A9: inhibition of radioligand binding", "setting": "[1]; [125I]-PYY, FlashPlate", "result": "− (“−” indicates less than 50% inhibition at 10 μM)"}, {"measurement": "A1: inhibition of radioligand binding", "setting": "Human δ-opioid (DOP); [3H]-Bremazocine, FlashPlate", "result": "− (“−” indicates less than 50% inhibition at 10 μM)"}, {"measurement": "A7: inhibition of radioligand binding", "setting": "Human μ-opioid (MOP); [3H]-Naloxone, FlashPlate", "result": "− (“−” indicates less than 50% inhibition at 10 μM)"}, {"measurement": "A11: inhibition of radioligand binding", "setting": "Mouse urotensin (mUR2); [125I]-Urotensin II, FlashPlate", "result": "− (“−” indicates less than 50% inhibition at 10 μM)"}, {"measurement": "A8: inhibition of radioligand binding", "setting": "Human neurokinin (NK1); [125I]-Substance P, filtration", "result": "+ (“+” indicates greater than 50% inhibition at 10 μM)"}, {"measurement": "A4: inhibition of radioligand binding", "setting": "Human Melanocortin (MC4); [125I]-NDP-αMSH, FlashPlate", "result": "+ (“+” indicates greater than 50% inhibition at 10 μM)"}, {"measurement": "A6: inhibition of radioligand binding", "setting": "[2]; [125I]-S36057, FlashPlate", "result": "− (“−” indicates less than 50% inhibition at 10 μM)"}, {"measurement": "A3: inhibition of radioligand binding", "setting": "Human Melanocortin (MC3); [125I]-NDP-αMSH, FlashPlate", "result": "− (“−” indicates less than 50% inhibition at 10 μM)"}, {"measurement": "A5: inhibition of radioligand binding", "setting": "Human melanocortin (MC5); [125I]-NDP-αMSH, FlashPlate", "result": "+ (“+” indicates greater than 50% inhibition at 10 μM)"}, {"measurement": "A10: inhibition of radioligand binding", "setting": "Human opioid (ORL1); [125I]-Nociceptin, FlashPlate", "result": "− (“−” indicates less than 50% inhibition at 10 μM)"}]}
